Consider two compounds from patent US10287585B2, “Therapy” (priority 2015, dated 2019).

“Also recorded” adds a separate entry of the source.

Assay type in all cases: in vivo
Data set [1] concerns E. coli CFT073. As to the kind of experiment: Treatment of Irf3−/− mice after intravesical E. coli CFT073 infection: Irf7 siRNA compared with antibiotic therapy (Example 5). The note with it: for number (frequency) of abscesses: siRNA intravenously and intravesically 24 hours and 4 days after infection, vs untreated. The method, then: Irf7 siRNA treatment was compared with antibiotic therapy. Groups of 6 Irf3^−/− mice were treated intravenously and intravesically with siRNA as described in Example 3, 24 hours and 4 days after intravesical infection with E. coli CFT073. The 24 hour time point corresponds to the time of acute symptoms, when patients are first diagnosed with febrile urinary tract infection (UTI) and treatment is initiated.
Also at that time, and following infection with E. coli CFT073, Irf3 mice were treated with the third-generation cephalosporin broad-spectrum antibiotic, Cefotaxime (STRAGEN Nordic A/S) at a dose of 100 or 400 mg/kg body weight. Cefotaxime was given by intraperitoneal injection twice a day for 6 days starting 24 hours after infection.
After 7 days, the mice were sacrificed, and kidney pathology and inflammation as quantified by neutrophil numbers in urine was assessed. Bacterial clearance was also assessed in SiRNA treated mice by measuring bacterial counts in urine. The results are shown in FIGS. 9A-E and 10A-D respectively.

Data set [2] concerns E. coli CFT073. The experiment in a line: Irf7 siRNA therapy given before intravesical E. coli CFT073 infection of susceptible Irf3−/− mice (Example 3). The method, then: Anesthetized mice (Isofluoran) were infected by intravesical inoculation with E. coli CFT073 (10^8 CFU in 0.1 mL) as described (Hagberg et al., Infection and immunity (1983) 40, 273-283). Overnight static cultures of E. coli CFT073 in Luria broth were used for animal inoculations.
Animals were sacrificed after 7 days under anesthesia, kidneys were aseptically removed and macroscopic pathology was documented by photography. Tissues were divided for RNA extraction (on dry ice), histology and immunostaining (in O.C.T. compound, VWR) and frozen in separate vials at −80° C. Infection was assessed by viable counts of homogenized whole kidney (in 5 mL PBS). Urine samples were collected prior to and at regular times after infection and quantitatively cultured. Neutrophil numbers were quantified in uncentrifuged urine by use of a hemocytometer.
siRNA therapy was used to confirm the role of Irf7 in pathology. Irf3^−/− mice were subjected to siRNA treatment at a dose of 5 mg/kg. A dose (300 μL) of Silencer Select Pre-designed Irf7 siRNA (Life Technologies, 4404010 #s79411) was injected into the tail vein (200 μL) and intravesically (100 μL), three days prior to and on the day of infection with Invivofectamine reagent (Life Technologies, 1377501) (FIG. 5A). The siRNA used was as follows:
(§1) Ambion In Vivo Negative Control siRNA was given as a control (Life Technologies, 4457287). For transcriptomic analysis, total RNA was isolated from the kidney of Irf3^−/− mice using mirVana miRNA Isolation Kit (Ambion by Life Technologies) followed by organic extraction using Acid-Phenol:Chloroform. The analysis was done in-house using Mouse Genome 430 PM array strips and GeneAtlas system (Affymetrix).
After 7 days following infection, mice were sacrificed. The disease phenotype was defined by macroscopic kidney pathology, number of abscesses, bacterial counts in urine and kidneys, urine neutrophil numbers and tissue imaging (FIGS. 5B and 5D). Irf7 siRNA-treated mice were compared to infected controls receiving irrelevant siRNA with Invivofectamine® or no treatment.

Data set [3] relates to IRF-7. The experiment in a line: Immunohistochemistry of IRF-7 in renal pelvic mucosa of siRNA treated mice. The note with it: Irf3−/− mice, 7 days after infection.
The subject of data set [4] is STAT3. As to the kind of experiment: Immunohistochemistry of submucosal STAT3 in kidneys of siRNA treated mice. To be noted: Irf3−/− mice, 7 days after infection.
Data set [5] has as its system pro-inflammatory genes and pathology network genes. As to the kind of experiment: Whole genome transcriptomic analysis of kidneys from Irf7 siRNA treated mice.
Description: as §1

The mark [6] stands for this setting: Cefotaxime 100 or 400 mg/kg intraperitoneal twice a day for 6 days starting 24 hours after infection, 7 days.
Where [7] appears, read: Irf3−/− mice, siRNA 5 mg/kg three days prior to and on the day of infection, 7 days after infection.
Where [8] appears, read: immunohistochemistry 7 days after infection, vs negative control siRNA treated or untreated Irf3−/− mice.
The mark [9] stands for this setting: kidneys of Irf7 siRNA treated Irf3−/− mice infected with CFT073 vs untreated controls.
Where [10] appears, read: abscesses, 7 days after infection.
[11] abbreviates: siRNA 24 hours and 4 days after infection, 7 days.

As to `CO/N=C(\C(=O)N[C@@H]1C(=O)N2C(C(=O)O)=C(COC(C)=O)CS[C@H]12)c1csc(N)n1` [Cefotaxime, reference compound], in data set [1] (setting [6]), the frequency of abscesses result is “reduced” and the “neutrophil numbers in urine (inflammation)” value is “reduced”.

For the compound “Irf7 siRNA: Silencer Select Pre-designed Irf7 siRNA (Life Technologies, 4404010 #s79411); sense GUGUUUACGAGGAACCCUAtt, antisense UAGGGUUCCUCGUAAACACgg; delivered with Invivofectamine (sense GUGUUUACGAGGAACCCUATT; antisense UAGGGUUCCUCGUAAACACGG; chemistry not given here)”, the “macroscopic kidney pathology and tissue damage” value in data set [2] (Irf3−/− mice, siRNA 5 mg/kg tail vein + intravesically, three days prior to and on the day of infection, 7 days after infection, vs irrelevant siRNA or untreated) was “Reduction”. In data set [2] (setting [7]), the “bacterial counts in urine and renal tissue” value is “reduction; also recorded: lower”; the “neutrophil recruitment (neutrophil numbers in urine)” value is listed as “reduction; also recorded: reduced”. For the same compound, the frequency of abscesses entry in data set [2] (Irf3−/− mice, siRNA three days prior to and on the day of infection, 7 days after infection, n=3-8) is “reduced”. In addition, in data set [2] (setting [8]), the “bacterial staining, frozen kidney tissue sections” value was “markedly reduced” and the “neutrophil staining, frozen kidney tissue sections” value is given as “markedly reduced”. Also, the “mucosal IRF-7 expression (staining) in renal pelvic mucosa” value in data set [3] is on record as “Suppression; also recorded: Inhibition”. Moreover, the “mucosal IRF-7 expression (staining) in renal pelvic mucosa” value in data set [3] (listed as siRNA) is reported as “Reduced”. Besides, the “submucosal STAT3 staining” value in data set [4] is “reduced; also recorded: inhibited”. In addition, in data set [5] (Irf7 siRNA treated mice, as stated in Example 5), the pathology-associated gene expression result is “absence”. Further, in data set [5] (setting [9]), the Tlr4 expression entry was “activated”; the “expression of pro-inflammatory genes and transcriptional regulators (chemokines, Irf7, Stat3, Jun)” value was “suppressed”. Moreover, in data set [5] (kidneys of siRNA treated Irf3−/− mice), the “transcript levels overall and of pathology-associated genes (Stat3, S100a8, Cxcl2, Junb)” value is on record as “suppressed”. Moreover, in data set [1] (setting [10]), the “effect compared with 100 mg/kg of Cefotaxime” value is “similar” and the “effect compared with 400 mg/kg of Cefotaxime” value is on record as “lower”. For the same compound, in data set [1] (setting [11]), the “bacterial counts in urine (bacterial clearance)” value was “lower” and the “neutrophil numbers in urine (magnitude of the neutrophil infiltrate)” value is on record as “reduced”. The “neutrophil numbers in urine (magnitude of the neutrophil infiltrate)” value in data set [1] (siRNA 24 hours and 4 days after infection, 7 days, listed as SiRNA) is on record as “significantly reduced”. In data set [1] (7 days after infection), the “number (frequency) of abscesses” value is given as “reduced”. Besides, the “number (frequency) of abscesses” value in data set [1] (7 days after infection, listed as SiRNA) is given as “significantly reduced”.
